Measured values taken from patent publication US10239933B2, “Compositions and methods for modulating thrombin generation” (The Children's Hospital of Philadelphia, priority 2011, dated 2019).
Entries after “also recorded” stand apart in the source; their conditions may differ. Ends that are not written are not given here.

Experiments:
rFVa = target: T1, rFVa (Homo sapiens, UniProt P12259); assay: Clotting assay, FV-deficient plasma supplemented with rFVa; type: biochemical; conditions: FIG. 8B: 0.25 nM rFVa, peptides at 5 μM, listed as BR peptide
T1 construct: thrombin rapidly cleaves Factor V at Arg709 to produce heavy chain (HC); rapidly cleaves at Arg1018 and Arg1545 to produce light chain (LC); made in house
T1 sequence (P12259 29-737 limits assumed): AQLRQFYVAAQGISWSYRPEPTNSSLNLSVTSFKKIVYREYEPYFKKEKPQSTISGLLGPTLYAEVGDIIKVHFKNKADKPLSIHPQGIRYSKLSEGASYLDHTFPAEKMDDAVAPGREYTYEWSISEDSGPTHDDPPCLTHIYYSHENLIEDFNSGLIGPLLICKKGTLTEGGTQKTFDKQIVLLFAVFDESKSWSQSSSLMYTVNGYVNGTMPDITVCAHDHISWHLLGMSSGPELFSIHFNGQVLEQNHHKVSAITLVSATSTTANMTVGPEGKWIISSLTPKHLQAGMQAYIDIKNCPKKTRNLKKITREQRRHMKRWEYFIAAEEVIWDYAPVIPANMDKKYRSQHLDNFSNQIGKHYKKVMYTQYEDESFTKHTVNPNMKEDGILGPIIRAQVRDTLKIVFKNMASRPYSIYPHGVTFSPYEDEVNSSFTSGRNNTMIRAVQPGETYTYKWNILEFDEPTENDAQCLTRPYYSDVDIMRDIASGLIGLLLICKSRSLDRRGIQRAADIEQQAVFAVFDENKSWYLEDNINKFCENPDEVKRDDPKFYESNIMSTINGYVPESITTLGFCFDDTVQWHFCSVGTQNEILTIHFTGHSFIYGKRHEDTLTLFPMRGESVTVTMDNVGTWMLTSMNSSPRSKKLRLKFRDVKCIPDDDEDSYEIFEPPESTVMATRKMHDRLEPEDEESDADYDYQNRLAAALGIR
T1 sequence (P12259 1574-2224 limits assumed): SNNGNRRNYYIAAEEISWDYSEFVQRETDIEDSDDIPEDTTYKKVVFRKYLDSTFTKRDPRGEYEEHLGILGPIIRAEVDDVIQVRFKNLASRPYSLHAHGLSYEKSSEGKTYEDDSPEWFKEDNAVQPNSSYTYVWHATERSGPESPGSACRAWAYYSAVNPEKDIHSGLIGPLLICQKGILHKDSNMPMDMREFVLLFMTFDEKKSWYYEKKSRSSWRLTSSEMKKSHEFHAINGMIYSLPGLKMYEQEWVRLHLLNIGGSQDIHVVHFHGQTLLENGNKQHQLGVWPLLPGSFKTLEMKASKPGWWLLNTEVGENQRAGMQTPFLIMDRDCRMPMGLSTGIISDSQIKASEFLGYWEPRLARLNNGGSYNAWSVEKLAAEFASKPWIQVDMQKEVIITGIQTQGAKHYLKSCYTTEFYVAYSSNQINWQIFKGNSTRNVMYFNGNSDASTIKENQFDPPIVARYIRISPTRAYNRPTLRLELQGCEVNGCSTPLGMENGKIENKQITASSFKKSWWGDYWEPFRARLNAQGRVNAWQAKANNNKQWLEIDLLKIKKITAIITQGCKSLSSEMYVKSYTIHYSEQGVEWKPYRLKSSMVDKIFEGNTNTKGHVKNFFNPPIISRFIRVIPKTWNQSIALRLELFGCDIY
Experimental: (§1) Residual clotting activity of Factor V variants was determined by prothrombin time-based clotting assays. Factor V variants were incubated with either the FVBR or s46 peptide, after which the mixtures were mixed with Factor V deficient plasma and clotting times were measured. Where indicated, the Factor V variants were activated by pre-incubation with thrombin prior to addition of the peptides.
(§2) FV derivatives (500 nM) were prepared in assay buffer. Where noted, FV derivatives were pretreated with 10 nM thrombin for 15 minutes at 37° C., followed by the addition of 15 nM hirudin. Samples were diluted to 0.25 nM in assay buffer with 0.1% BSA, and the specific clotting activity was measured in FV-deficient plasma (George King Bio-Medical, Overland Park, Kans.) with TriniCLOT PT Excel (Tcoag, Wicklow, Ireland) as described (Camire et al. (1998) Biochemistry 37:11896-11906). The data are presented as the means±S.D.

FV-810^R1545Q = target: T2, FV-810^R1545Q (Homo sapiens, UniProt P12259, DEL839-1519/R1573Q); assay: Clotting assay with FV-810^R1545Q; type: biochemical
T2 construct: amino acids 1-28 are a signal peptide that is cleaved and numbering begins at residue 29; made in house
T2 sequence (P12259 with tags, fused parts or gaps DEL839-1519/R1573Q): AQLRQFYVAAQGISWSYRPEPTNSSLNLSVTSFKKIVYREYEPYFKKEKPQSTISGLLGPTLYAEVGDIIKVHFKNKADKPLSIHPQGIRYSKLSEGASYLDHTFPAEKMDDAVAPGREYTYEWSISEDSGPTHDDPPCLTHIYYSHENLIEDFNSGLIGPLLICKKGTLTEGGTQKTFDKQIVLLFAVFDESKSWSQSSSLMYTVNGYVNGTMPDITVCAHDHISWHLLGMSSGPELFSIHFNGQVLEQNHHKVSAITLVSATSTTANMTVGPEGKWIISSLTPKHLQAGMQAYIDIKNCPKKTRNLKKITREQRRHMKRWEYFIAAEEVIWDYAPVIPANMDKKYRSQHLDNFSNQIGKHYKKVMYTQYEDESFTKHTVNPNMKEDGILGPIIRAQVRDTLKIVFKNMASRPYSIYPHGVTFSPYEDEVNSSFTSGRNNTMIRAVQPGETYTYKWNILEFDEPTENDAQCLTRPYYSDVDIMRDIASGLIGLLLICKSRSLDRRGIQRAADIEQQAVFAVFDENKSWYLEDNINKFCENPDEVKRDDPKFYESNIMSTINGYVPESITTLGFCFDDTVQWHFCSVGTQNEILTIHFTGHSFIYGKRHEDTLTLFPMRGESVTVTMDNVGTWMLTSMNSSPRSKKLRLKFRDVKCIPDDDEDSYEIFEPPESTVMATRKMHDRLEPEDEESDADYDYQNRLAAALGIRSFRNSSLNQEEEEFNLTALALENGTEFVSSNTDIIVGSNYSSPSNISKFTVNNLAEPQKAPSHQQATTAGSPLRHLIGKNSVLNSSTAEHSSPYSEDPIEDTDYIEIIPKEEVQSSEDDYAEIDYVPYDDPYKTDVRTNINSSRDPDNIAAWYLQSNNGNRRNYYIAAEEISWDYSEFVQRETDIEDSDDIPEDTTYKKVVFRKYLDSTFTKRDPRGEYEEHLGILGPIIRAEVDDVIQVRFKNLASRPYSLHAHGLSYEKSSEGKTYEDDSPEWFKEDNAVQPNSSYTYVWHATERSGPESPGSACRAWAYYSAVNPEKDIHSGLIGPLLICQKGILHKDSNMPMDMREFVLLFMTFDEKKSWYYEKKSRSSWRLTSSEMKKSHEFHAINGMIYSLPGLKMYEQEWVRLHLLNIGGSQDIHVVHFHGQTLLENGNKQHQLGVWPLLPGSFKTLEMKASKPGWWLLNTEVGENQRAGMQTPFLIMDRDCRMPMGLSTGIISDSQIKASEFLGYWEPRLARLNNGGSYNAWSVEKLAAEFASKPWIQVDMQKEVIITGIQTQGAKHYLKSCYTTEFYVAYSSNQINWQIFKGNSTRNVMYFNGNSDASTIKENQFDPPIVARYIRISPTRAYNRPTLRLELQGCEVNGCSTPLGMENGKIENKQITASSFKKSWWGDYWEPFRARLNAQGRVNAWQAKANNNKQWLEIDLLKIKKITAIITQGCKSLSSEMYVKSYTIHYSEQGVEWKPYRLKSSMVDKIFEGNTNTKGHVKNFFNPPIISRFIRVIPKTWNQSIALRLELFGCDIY
Experimental: as §1, §2

FXa/FVa = target: T3, FXa/FVa (Homo sapiens, UniProt P12259); assay: Binding of fluorescently labeled FXa to rFVa on liposomes (anisotropy); conditions: on PCPS liposomes
T3 construct: thrombin rapidly cleaves Factor V at Arg709 to produce heavy chain (HC); rapidly cleaves at Arg1018 and Arg1545 to produce light chain (LC); made in house
T3 sequence (P12259 29-737 limits assumed): T1 sequence (P12259 29-737 limits assumed)
T3 sequence (P12259 1574-2224 limits assumed): T1 sequence (P12259 1574-2224 limits assumed)

FXa/FV-DT [1] = target: T4, FXa/FV-DT (Homo sapiens, UniProt P12259, DEL839-1519); assay: Prothrombin activation assay, prothrombinase containing FV-810 (FV-DT); type: biochemical; conditions: peptide titrated, 1.4 μM prothrombin, 50 μM PCPS, 25° C.
T4 construct: amino acids 1-28 are a signal peptide that is cleaved and numbering begins at residue 29; made in house
T4 sequence (P12259 with tags, fused parts or gaps DEL839-1519): as the sequence (P12259 with tags, fused parts or gaps DEL839-1519/R1573Q) above, with Q864R counted along it
Experimental: Steady-state initial velocities of prothrombin cleavage were determined discontinuously at 25° C. by measuring the initial rate of thrombin formation. Reaction mixtures contained liposomes (75:25, PC:PS), prothrombin, the indicated Factor V variants, and the Factor V peptides FVBR or s46. The reactions were initiated by adding Factor Xa, and thrombin generation was determined at multiple time points by monitoring the cleavage of the chromogenic thrombin substrate S-2238.
Steady-state initial velocities of prothrombin cleavage were determined discontinuously at 25° C. as described (Camire, R. M. (2002) J. Biol. Chem., 277:37863-37870). Reaction mixtures containing PCPS (50 μM), DAPA (3 μM), prothrombin (1.4 μM), and either rFVa or the indicated FV-810 derivatives were incubated with B-domain peptides (0-10 μM) in assay buffer. […] Prothrombin activation was determined using the chromogenic thrombin substrate 52238 as described (Camire, R. M. (2002) J. Biol. Chem., 277:37863-37870).

FV-810^R709Q = target: T5, FV-810^R709Q (Homo sapiens, UniProt P12259, DEL839-1519/R737Q); assay: Clotting assay with FV-810^R709Q; type: biochemical; conditions: prior to thrombin cleavage
T5 construct: amino acids 1-28 are a signal peptide that is cleaved and numbering begins at residue 29; made in house
T5 sequence (P12259 with tags, fused parts or gaps R737Q/DEL839-1519): as the sequence (P12259 with tags, fused parts or gaps DEL839-1519/R1573Q) above, with R709Q, Q864R counted along it
Experimental: as §1, §2

FXa/FV-DT [2] = target: T4, FXa/FV-DT; assay: Binding of fluorescently labeled FXa to FV-DT on liposomes (anisotropy); conditions: on PCPS liposomes
FV-810^QQ = target: T6, FV-810^QQ (Homo sapiens, UniProt P12259, DEL839-1519/R1573Q/R737Q); assay: Clotting assay with FV-810^QQ; type: biochemical
T6 construct: amino acids 1-28 are a signal peptide that is cleaved and numbering begins at residue 29; made in house
T6 sequence (P12259 with tags, fused parts or gaps R737Q/DEL839-1519/R1573Q): as the sequence (P12259 with tags, fused parts or gaps DEL839-1519/R1573Q) above, with R709Q counted along it
Experimental: as §1, §2

plasma-derived Factor V = target: T7, plasma-derived Factor V (Homo sapiens, UniProt P12259); assay: Proteolytic activation of Factor V by thrombin (SDS-PAGE); type: biochemical; conditions: presence of FVBR
T7 construct: from tissue; host or cells: plasma
T7 sequence (P12259 29-2224): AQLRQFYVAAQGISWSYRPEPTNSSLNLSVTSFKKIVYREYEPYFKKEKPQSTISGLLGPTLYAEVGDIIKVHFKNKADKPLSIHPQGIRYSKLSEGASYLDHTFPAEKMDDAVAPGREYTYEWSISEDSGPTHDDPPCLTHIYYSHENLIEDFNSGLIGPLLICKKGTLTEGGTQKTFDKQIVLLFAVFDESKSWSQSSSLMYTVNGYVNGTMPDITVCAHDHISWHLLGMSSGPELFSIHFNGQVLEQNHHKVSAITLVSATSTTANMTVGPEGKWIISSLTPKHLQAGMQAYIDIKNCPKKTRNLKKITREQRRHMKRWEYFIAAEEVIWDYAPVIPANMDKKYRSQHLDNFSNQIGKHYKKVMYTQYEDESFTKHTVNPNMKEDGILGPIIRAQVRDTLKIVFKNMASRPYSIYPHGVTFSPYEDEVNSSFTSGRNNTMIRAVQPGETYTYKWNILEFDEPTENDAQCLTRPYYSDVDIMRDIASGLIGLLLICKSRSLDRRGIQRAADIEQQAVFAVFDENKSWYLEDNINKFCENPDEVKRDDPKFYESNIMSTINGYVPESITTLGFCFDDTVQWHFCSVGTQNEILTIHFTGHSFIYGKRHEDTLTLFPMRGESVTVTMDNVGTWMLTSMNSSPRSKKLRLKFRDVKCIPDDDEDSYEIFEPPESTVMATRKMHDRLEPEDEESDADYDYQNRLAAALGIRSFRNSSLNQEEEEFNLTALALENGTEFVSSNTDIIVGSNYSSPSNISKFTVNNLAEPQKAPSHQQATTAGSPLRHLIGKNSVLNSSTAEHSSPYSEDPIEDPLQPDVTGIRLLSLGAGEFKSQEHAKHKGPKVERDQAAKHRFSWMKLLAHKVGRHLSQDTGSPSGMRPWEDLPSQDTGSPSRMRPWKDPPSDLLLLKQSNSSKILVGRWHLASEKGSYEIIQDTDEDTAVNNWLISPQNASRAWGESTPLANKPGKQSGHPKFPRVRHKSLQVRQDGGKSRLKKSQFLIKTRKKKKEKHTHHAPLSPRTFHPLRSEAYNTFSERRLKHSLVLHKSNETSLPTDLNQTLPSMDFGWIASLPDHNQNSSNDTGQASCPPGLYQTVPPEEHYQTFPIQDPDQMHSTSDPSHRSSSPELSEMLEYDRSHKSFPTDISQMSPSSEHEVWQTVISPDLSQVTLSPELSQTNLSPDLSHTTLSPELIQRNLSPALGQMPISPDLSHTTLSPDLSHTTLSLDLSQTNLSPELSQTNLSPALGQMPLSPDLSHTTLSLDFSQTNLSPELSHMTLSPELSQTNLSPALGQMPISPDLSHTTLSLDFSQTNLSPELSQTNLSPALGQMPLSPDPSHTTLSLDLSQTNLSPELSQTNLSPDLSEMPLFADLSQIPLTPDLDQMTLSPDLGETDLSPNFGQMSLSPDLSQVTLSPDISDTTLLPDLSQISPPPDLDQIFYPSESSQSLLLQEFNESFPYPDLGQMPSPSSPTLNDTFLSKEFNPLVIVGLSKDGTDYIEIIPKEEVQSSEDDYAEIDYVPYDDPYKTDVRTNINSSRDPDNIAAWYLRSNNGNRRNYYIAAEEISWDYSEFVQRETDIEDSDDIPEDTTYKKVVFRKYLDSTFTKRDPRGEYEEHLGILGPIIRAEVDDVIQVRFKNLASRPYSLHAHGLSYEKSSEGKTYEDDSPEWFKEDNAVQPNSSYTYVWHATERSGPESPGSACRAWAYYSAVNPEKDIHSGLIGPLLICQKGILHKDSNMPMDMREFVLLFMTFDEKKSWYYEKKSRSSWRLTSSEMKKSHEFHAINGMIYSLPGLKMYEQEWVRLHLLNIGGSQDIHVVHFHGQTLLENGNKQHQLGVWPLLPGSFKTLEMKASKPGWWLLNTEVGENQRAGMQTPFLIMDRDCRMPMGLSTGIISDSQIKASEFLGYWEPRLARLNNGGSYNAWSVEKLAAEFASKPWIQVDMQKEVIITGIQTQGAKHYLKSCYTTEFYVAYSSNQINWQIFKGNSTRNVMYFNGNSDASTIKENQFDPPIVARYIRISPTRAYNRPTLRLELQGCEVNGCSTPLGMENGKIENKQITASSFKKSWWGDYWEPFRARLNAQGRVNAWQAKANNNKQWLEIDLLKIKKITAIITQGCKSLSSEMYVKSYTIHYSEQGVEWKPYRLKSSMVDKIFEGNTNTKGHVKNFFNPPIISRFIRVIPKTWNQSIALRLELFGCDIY
Experimental: Plasma-derived Factor V was incubated with thrombin in the presence or absence of FVBR peptide. Samples were removed and quenched in sample buffer at the indicated times, and the cleavage products were analyzed by SDS-PAGE and Coomassie Brilliant Blue staining.

[3] = following incubation with thrombin

inhibition of clotting activity of rFVa/FVa (rFVa): no inhibitory effect
inhibition of FV-810^R1545Q (FV-810^R1545Q; [3]): still inhibited
inhibition of FV-810^R1545Q (FV-810^R1545Q; prior to thrombin cleavage): potently inhibited
disruption of FXa binding to FVa (FXa/FVa): not FVa
inhibition of prothrombin activation with FV-810 (FV-DT) (FXa/FV-DT [1]): inhibiting; also recorded: inhibition
inhibition of prothrombin activation with FV-810 (FV-DT) (FXa/FV-DT [1]; listed as BR peptide): effectively inhibited
inhibition of FV-810^R709Q (FV-810^R709Q): potently inhibited
disruption of FXa binding to FV-DT (FXa/FV-DT [2]): impaired
disruption of FXa binding to FV-DT (FXa/FV-DT [2]; listed as FV basic region peptide): disrupts binding
inhibition of FV-810^QQ (FV-810^QQ; [3]): still inhibited
inhibition of FV-810^QQ (FV-810^QQ; prior to thrombin cleavage): potently inhibited
thrombin cleavage of FV at Arg709 (plasma-derived Factor V): proceeds normally
Sequence: SRAWGESTPLANKPGKQSGHPKFPRVRHKSLQVRQDGGKSRLKKSQFLIKTRKKKKEK [FVBR]
proteolytic activation of FV by thrombin, cleavage at Arg1545 (plasma-derived Factor V): delays the proteolytic activation; also recorded: delayed cleavage
